# Patent US9000007B2, “5-benzylaminomethyl-6-aminopyrazolo [3, 4 -B] pyridine derivatives as cholesteryl ester-transfer protein (CETP) inhibitors useful for the treatment of atherosclerosis” (Dr. Reddy's Laboratories, Ltd., priority 2011, dated 2015)
# Target: T1, recombinant CETP enzyme (rCETP) (Homo sapiens, UniProt P11597)
# T1 construct: purchased ROAR Biomedicals, USA
# T1 sequence (P11597 18-493): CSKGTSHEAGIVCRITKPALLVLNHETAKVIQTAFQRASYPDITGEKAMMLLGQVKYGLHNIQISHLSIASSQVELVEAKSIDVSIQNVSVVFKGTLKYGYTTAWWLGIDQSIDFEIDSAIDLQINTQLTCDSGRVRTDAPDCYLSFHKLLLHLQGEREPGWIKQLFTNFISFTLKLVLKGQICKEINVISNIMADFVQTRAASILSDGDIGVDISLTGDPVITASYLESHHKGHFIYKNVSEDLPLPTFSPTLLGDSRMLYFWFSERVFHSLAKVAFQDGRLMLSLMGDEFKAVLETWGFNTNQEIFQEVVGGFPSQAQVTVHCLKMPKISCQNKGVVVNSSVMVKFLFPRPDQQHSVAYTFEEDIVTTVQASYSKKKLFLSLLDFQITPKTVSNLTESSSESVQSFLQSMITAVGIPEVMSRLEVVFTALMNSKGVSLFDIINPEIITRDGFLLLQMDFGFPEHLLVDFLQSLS
# Test: In vitro CETP inhibition assay, fluorometric kit (ROAR Biomedicals)
# Format: biochemical
# Details: rCETP 50 ng, 37° C. for 90 minutes, fluorescence Ex 492 nm / Em 516 nm
# Source text: Determination of in Vitro CETP Activity Using Fluorometric Technique
# An in vitro cholesteryl ester transfer protein inhibition (CETP) assay using a commercially available fluorometric assay kit from ROAR Biomedicals, USA was used to measure the CETP inhibition activity of the compounds of this application. This assay kit uses a donor molecule containing a fluorescent self-quenched neutral lipid that is transferred to an acceptor molecule in the presence of recombinant CETP enzyme (rCETP). The CETP-mediated transfer of the fluorescent neutral lipid to the acceptor molecule results in an increase in fluorescence (Excitation: 492 nm; Emission: 516 nm).
# 20 mM stock solutions of compounds were prepared in 100% DMSO and further dilutions were made such that the final concentration of DMSO in the reaction mix was 1%. […] The assay was performed in 96 well microplates and in each well, the reaction mixture contained 190 μl of assay buffer (150 mM NaCl, 10 mM Tris and 2 mM EDTA, pH-7.4), 4 μl of donor particle, 4 μl of acceptor particle, rCETP (50 ng) and 2 μl of test compound at varying final concentration of 0.1, 1, 10, 100, 1000 & 10000 nM. Two control reactions were performed, one without test compound (positive control) and the other without the rCETP (negative control). The reactions were incubated at 37° C. for 90 minutes and the reaction plate was transferred to a PCR machine MX3005P and the fluorescence units (FLU) were quantified (Excitation: 492 nm; Emission: 516 nm).
# The negative control values were subtracted from the positive control as well as all the test values to correct for background fluorescence. The percentage inhibition of activity was calculated by using the following equation: % Inhibition of CETP activity=[100−(100×(FLU in test/FLU in positive control))].
# The half maximal inhibitory concentration (IC50) was determined using the BIOGRAPH software (version no. 3.3).
row,Structure (SMILES),IC50 [nM]
1,"Cc1nn(C(C)(C)C)c2nc(N(CC3CC3)CC3CC3)c(CN(Cc3cc(C(F)(F)F)cc(C(F)(F)F)c3)c3ncc(NC(=O)C(C)C)cn3)cc12 [Example 1, N-(2-(((6-(bis(cyclopropylmethyl)amino)-1-(tert-butyl)-3-methyl-1H-pyrazolo[3,4-b]pyridin-5-yl)methyl)(3,5-bis(trifluoromethyl)benzyl)amino)pyrimidin-5-yl) isobutyramide]",64
2,"Cc1nn(C(C)(C)C)c2nc(N(CC3CC3)CC3CC3)c(CN(Cc3cc(C(F)(F)F)cc(C(F)(F)F)c3)c3ccc(C4CC4)cn3)cc12 [Example 2, 5-(((3,5-Bis(trifluoromethyl)benzyl)(5-cyclopropylpyridin-2-yl)amino)methyl)-1-(tert-butyl)-N,N-bis(cyclopropylmethyl)-3-methyl-1H-pyrazolo[3,4-b]pyridin-6-amine]",78
3,"Cc1nn(C(C)(C)C)c2nc(N(CC3CC3)CC3CC3)c(CN(Cc3cc(C(F)(F)F)cc(C(F)(F)F)c3)c3ncc(NC(=O)C4CC4)cn3)cc12 [Example 3, N-(2-(((6-(bis(cyclopropylmethyl)amino)-1-(tert-butyl)-3-methyl-1H-pyrazolo[3,4-b]pyridin-5-yl)methyl)(3,5-bis(trifluoromethyl)benzyl)amino)pyrimidin-5-yl)cyclopropanecarboxamide]",35
4,"CC(=O)c1cnc(N(Cc2cc(C(F)(F)F)cc(C(F)(F)F)c2)Cc2cc3c(C)nn(C)c3nc2N(CC2CC2)CC2CC2)nc1 [Example 4, 1-(2-(((6-(bis(cyclopropylmethyl)amino)-1,3-dimethyl-1H-pyrazolo[3,4-b]pyridin-5-yl)methyl)(3,5-bis(trifluoromethyl)benzyl)amino)pyrimidin-5-yl)ethanone]",5.7
5,"CC(=O)c1cnc(N(Cc2cc(C(F)(F)F)cc(C(F)(F)F)c2)Cc2cc3c(C)nn(C(C)(C)C)c3nc2N(CC2CC2)CC2CC2)nc1 [Example 5, 1-(2-(((6-(bis(cyclopropylmethyl)amino)-1-(tert-butyl)-3-methyl-1H-pyrazolo[3,4-b]pyridin-5-yl)methyl)(3,5-bis(trifluoromethyl)benzyl)amino)pyrimidin-5-yl)ethanone]",41.5
6,Cc1nn(C(C)(C)C)c2nc(N(CC3CC3)CC3CC3)c(CN(Cc3cc(C(F)(F)F)cc(C(F)(F)F)c3)c3ncc(-c4ccon4)cn3)cc12 [Example 7],9.4
7,"Cc1nn(C(C)(C)C)c2nc(N(CC3CC3)CC3CC3)c(CN(Cc3cc(C(F)(F)F)cc(C(F)(F)F)c3)c3ncc(-c4cc[nH]n4)cn3)cc12 [Example 8, 5-(((5-(1H-pyrazol-3-yl)pyrimidin-2-yl)(3,5-bis(trifluoromethyl)benzyl)amino)methyl)-1-(tert-butyl)-N,N-bis(cyclopropylmethyl)-3-methyl-1H-pyrazolo[3,4-b]pyridin-6-amine]",27
8,"Cc1nn(C(C)(C)C)c2nc(N(CC3CC3)CC3CC3)c(CN(Cc3cc(C(F)(F)F)cc(C(F)(F)F)c3)c3ncc(-c4ccn(C)n4)cn3)cc12 [Example 9, 5-(((3,5-Bis(trifluoromethyl)benzyl)(5-(1-methyl-1H-pyrazol-3-yl)pyrimidin-2-yl)amino)methyl)-1-(tert-butyl)-N,N-bis(cyclopropylmethyl)-3-methyl-1H-pyrazolo[3,4-b]pyridin-6-amine]",100
9,"Cc1nn(C(C)(C)C)c2nc(N(CC3CC3)CC3CC3)c(CN(Cc3cc(C(F)(F)F)cc(C(F)(F)F)c3)c3ncc(C#N)cn3)cc12 [Example 10, 2-(((6-(bis(cyclopropylmethyl)amino)-1-(tert-butyl)-3-methyl-1H-pyrazolo[3,4-b]pyridin-5-yl)methyl)(3,5-bis(trifluoromethyl)benzyl)amino)pyrimidine-5-carbonitrile]",1250
10,"Cc1nn(C(C)(C)C)c2nc(N(CC3CC3)CC3CC3)c(CN(Cc3cc(C(F)(F)F)cc(C(F)(F)F)c3)c3ncc(C(N)=O)cn3)cc12 [Example 11, 2-(((6-(bis(cyclopropylmethyl)amino)-1-(tert-butyl)-3-methyl-1H-pyrazolo[3,4-b]pyridin-5-yl)methyl)(3,5-bis(trifluoromethyl)benzyl)amino)pyrimidine-5-carboxamide]",18
11,"Cc1nn(C(C)(C)C)c2nc(N(CC3CC3)CC3CC3)c(CN(Cc3cc(C(F)(F)F)cc(C(F)(F)F)c3)c3ncc(C(=O)N(C)C)cn3)cc12 [Example 12, 2-(((6-(bis(cyclopropylmethyl)amino)-1-(tert-butyl)-3-methyl-1H-pyrazolo[3,4-b]pyridin-5-yl)methyl)(3,5-bis(trifluoromethyl)benzyl)amino)-N,N-dimethylpyrimidine-5-carboxamide]",215
12,"Cc1nn(C(C)(C)C)c2nc(N(CC3CC3)CC3CC3)c(CN(Cc3cc(C(F)(F)F)cc(C(F)(F)F)c3)c3ncc(N4CCOC4=O)cn3)cc12 [Example 13, 3-(2-(((6-(bis(cyclopropylmethyl)amino)-1-(tert-butyl)-3-methyl-1H-pyrazolo[3,4-b]pyridin-5-yl)methyl)(3,5-bis(trifluoromethyl)benzyl)amino)pyrimidin-5-yl)oxazolidin-2-one]",10
13,"Cc1nn(C(C)(C)C)c2nc(N(CC3CC3)CC3CC3)c(CN(Cc3cc(C(F)(F)F)cc(C(F)(F)F)c3)c3ncc(N4CCOCC4)cn3)cc12 [Example 14, 5-(((3,5-Bis(trifluoromethyl)benzyl)(5-morpholinopyrimidin-2-yl)amino)methyl)-1-(tert-butyl)-N,N-bis(cyclopropylmethyl)-3-methyl-1H-pyrazolo[3,4-b]pyridin-6-amine]",46
14,"Cc1nn(C)c2nc(N(CC3CC3)CC3CC3)c(CN(Cc3cc(C(F)(F)F)cc(C(F)(F)F)c3)c3ncc(N4CCOCC4)cn3)cc12 [Example 15, 5-(((3,5-bis(trifluoromethyl)benzyl)(5-morpholinopyrimidin-2-yl)amino)methyl)-N,N-bis(cyclopropylmethyl)-1,3-dimethyl-1H-pyrazolo[3,4-b]pyridin-6-amine]",49
15,"Cc1nn(C(C)(C)C)c2nc(N(CC3CC3)CC3CC3)c(CN(Cc3cc(C(F)(F)F)cc(C(F)(F)F)c3)c3ncc(N4CCCC4=O)cn3)cc12 [Example 16, 1-(2-(((6-(Bis(cyclopropylmethyl)amino)-1-(tert-butyl)-3-methyl-1H-pyrazolo[3,4-b]pyridin-5-yl)methyl)(3,5-bis(trifluoromethyl)benzyl)amino)pyrimidin-5-yl)pyrrolidin-2-one]",56
16,"Cc1nc(N(Cc2cc(C(F)(F)F)cc(C(F)(F)F)c2)Cc2cc3c(C)nn(C(C)(C)C)c3nc2N(CC2CC2)CC2CC2)ncc1C(=O)O [Example 18, 2-(((6-(Bis(cyclopropylmethyl)amino)-1-(tert-butyl)-3-methyl-1H-pyrazolo[3,4-b]pyridin-5-yl)methyl)(3,5-bis(trifluoromethyl)benzyl)amino)-4-methylpyrimidine-5-carboxylic acid]",54
17,"CCOC(=O)c1cnc(N(Cc2cc(C(F)(F)F)cc(C(F)(F)F)c2)Cc2cc3c(C)nn(C(C)(C)C)c3nc2N(CC2CC2)CC2CC2)nc1 [Example 19, Ethyl 2-(((6-(bis(cyclopropylmethyl)amino)-1-(tert-butyl)-3-methyl-1H-pyrazolo[3,4-b]pyridin-5-yl)methyl)(3,5-bis(trifluoromethyl)benzyl)amino)pyrimidine-5-carboxylate]",70
18,"Cc1nn(C(C)(C)C)c2nc(N(CC3CC3)CC3CC3)c(CN(Cc3cc(C(F)(F)F)cc(C(F)(F)F)c3)c3ncc(C(=O)O)cn3)cc12 [Example 20, 2-(((6-(Bis(cyclopropylmethyl)amino)-1-(tert-butyl)-3-methyl-1H-pyrazolo[3,4-b]pyridin-5-yl)methyl)(3,5-bis(trifluoromethyl)benzyl)amino)pyrimidine-5-carboxylic acid]",61
